How the values were obtained:
Bmi-1 protein = test: Sandwich ELISA Assay (Bmi-1 protein level in HT-1080 cells); format: cell-based
Summary of the method: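 HT-1080 cells were treated with compounds (0.5% DMSO final) for 40-48 h at 37 °C. Lysates were assayed by sandwich ELISA: mouse anti-Bmi-1 capture, rabbit anti-Bmi-1 and HRP anti-rabbit detection, TMB read at OD450 (OD570 reference). Levels were quantified against a recombinant GST-Bmi-1 standard curve (125-8000 pg/mL).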

| Structure (SMILES) | EC50 (Bmi-1 protein) | melting point |
| --- | --- | --- |
| CCc1nc2ccc(F)cc2n1-c1cc(N)nc(Nc2ccc(N(C)C)cc2)n1 [Cpd 162, N^2-[4-(dimethylamino)phenyl]-6-(2-ethyl-6-fluoro-1H-benzimidazol-1-yl)pyrimidine-2,4-diamine] | 10 to 100 nM | 230 to 232 °C |
| CCc1nc2ccc(F)cc2n1-c1cc(N)nc(Nc2cccc(F)c2)n1 [Cpd 163, 6-(2-ethyl-6-fluoro-1H-benzimidazol-1-yl)-N^2-(3-fluorophenyl)pyrimidine-2,4-diamine] | 100 to 3000 nM | 169 to 171 °C |
| CCc1nc2ccc(F)cc2n1-c1cc(N)nc(Nc2cccc(OC)c2)n1 [Cpd 165, 6-(2-ethyl-6-fluoro-1H-benzimidazol-1-yl)-N^2-(3-methoxyphenyl)pyrimidine-2,4-diamine] | 100 to 3000 nM | 133 to 135 °C |
| CCc1nc2ccc(F)cc2n1-c1cc(N)nc(Nc2cccc(C)c2)n1 [Cpd 166, 6-(2-ethyl-6-fluoro-1H-benzimidazol-1-yl)-N^2-(3-methylphenyl)pyrimidine-2,4-diamine] | 100 to 3000 nM | 149 to 150 °C |
| CCc1nc2ccc(F)cc2n1-c1cc(N)nc(Nc2ccc(C#N)cc2)n1 [Cpd 167, 4-{[4-amino-6-(2-ethyl-6-fluoro-1H-benzimidazol-1-yl)pyrimidin-2-yl]amino}benzonitrile] | 100 to 3000 nM | 252 to 255 °C |
| CCc1nc2ccc(F)cc2n1-c1cc(N)nc(Nc2ccc(OC)c(F)c2)n1 [Cpd 168, 6-(2-ethyl-6-fluoro-1H-benzimidazol-1-yl)-N^2-(3-fluoro-4-methoxyphenyl)pyrimidine-2,4-diamine] | 1 to 10 nM | 129 to 131 °C |
| Cc1nc2ccc(F)cn2c1-c1cc(N)nc(Nc2ccc(F)cc2)n1 [Cpd 169, 6-(6-fluoro-2-methylimidazo[1,2-a]pyridin-3-yl)-N^2-(4-fluorophenyl)pyrimidine-2,4-diamine] | 100 to 3000 nM | 250 to 253 °C |
| Cc1nc2ccc(F)cn2c1-c1cc(N)nc(Nc2ccc(Cl)cc2)n1 [Cpd 172, N^2-(4-chlorophenyl)-6-(6-fluoro-2-methylimidazo[1,2-a]pyridin-3-yl)pyrimidine-2,4-diamine] | 1 to 10 nM | 243 to 246 °C |

More lines, now with the values ahead:

| EC50 (Bmi-1 protein) | melting point | Structure (SMILES) |
| --- | --- | --- |
| 10 to 100 nM | 209 to 211 °C | CCc1nc2ccc(F)cc2n1-c1cc(N)nc(Nc2ccc(Cl)c(F)c2)n1 [Cpd 175, N^2-(4-chloro-3-fluorophenyl)-6-(2-ethyl-6-fluoro-1H-benzimidazol-1-yl)pyrimidine-2,4-diamine] |
| 100 to 3000 nM | 111 to 112 °C | Cc1cc2nc(C)n(-c3cc(N)nc(Nc4ccc(Cl)cc4)n3)c2cc1C [Cpd 184, N^2-(4-chlorophenyl)-6-(2,5,6-trimethyl-1H-benzimidazol-1-yl)pyrimidine-2,4-diamine] |
| 10 to 100 nM | 113 to 114 °C | COc1ccc(Nc2nc(N)cc(-n3c(C)nc4cc(C)c(C)cc43)n2)cc1 [Cpd 185, N^2-(4-methoxyphenyl)-6-(2,5,6-trimethyl-1H-benzimidazol-1-yl)pyrimidine-2,4-diamine] |
| 10 to 100 nM | 120 to 121 °C | COc1ccc(Nc2nc(N)cc(-n3c(C)nc4cc(C)c(C)cc43)n2)cc1F [Cpd 186, N^2-(3-fluoro-4-methoxyphenyl)-6-(2,5,6-trimethyl-1H-benzimidazol-1-yl)pyrimidine-2,4-diamine] |
| 10 to 100 nM | 129 to 131 °C | COc1ccc(Nc2nc(N)cc(-n3c(C)nc4cc(C)c(C)cc43)n2)cc1Cl [Cpd 187, N^2-(3-chloro-4-methoxyphenyl)-6-(2,5,6-trimethyl-1H-benzimidazol-1-yl)pyrimidine-2,4-diamine] |
| 10 to 100 nM | 89 to 91 °C | Cc1cc2nc(C)n(-c3cc(N)nc(Nc4ccc(OC(F)F)cc4)n3)c2cc1C [Cpd 188, N^2-[4-(difluoromethoxy)phenyl]-6-(2,5,6-trimethyl-1H-benzimidazol-1-yl)pyrimidine-2,4-diamine] |
| 100 to 3000 nM | 89 to 91 °C | COc1ccc(Nc2nc(N)cc(-c3c(C)noc3C)n2)cc1 [Cpd 189, 6-(3,5-dimethyl-1,2-oxazol-4-yl)-N^2-(4-methoxyphenyl)pyrimidine-2,4-diamine] |

Reference: patent publication US10370371B2, “Substituted pyrimidine Bmi-1 inhibitors” (PTC Therapeutics, Inc., priority 2013, dated 2019)
